# Measurements: PMC3334764, “Effect of fluid loading during hypovolaemic shock on caspofungin pharmacokinetic parameters in pig” (Critical Care, 2011)
# Where two headings read alike, the source gives them in different places. Marks after values point to notes of the source that are not given here.
# How the values were obtained:
# [1] = surgical ICU patients; 24-hour trough plasma concentration; cited from earlier work
# Source text: The pharmacokinetics of caspofungin have been recently studied in a cohort of surgical ICU patients. […] Therefore, the authors concluded that a dose adjustment may be necessary in some ICU patients, based on the monitoring of plasma conc ...
# [2] = Lung tissue caspofungin concentration and tissue-to-plasma ratio in pigs; type: in vivo; conditions: pig
# Method: (§1) In the shock group (n = 12), the animals were bled through the carotid catheter (Figure 1). Blood withdrawal was started at a rate of 0.8 to 1 mL/kg/minute and continued until all three of the following end points were achieved: MAP of 40 to 45 mmHg, decrease in CI greater than 40% and SVO2 lower than 30%. End points were maintained for a period of 120 minutes by means of further bleeding. During the four-hour resuscitation period, the animals received isotonic saline at a rate of 2 mL/kg/minute. The infusions were stopped when the CI reached 90% of the baseline value and SVO2 was above 50%, and the infusions were then adjusted to keep these parameters constant until the animals were killed. At the beginning of the resuscitation period, the animals received a one-hour intravenous infusion of 70 mg of caspofungin acetate (Cancidas; Merck Sharp & Dohme-Chibret, Paris, France) diluted in 50 mL of saline, which was injected into the right atrium through the proximal lumen of the pulmonary arterial catheter via a pump-driven syringe. A second group of animals (n = 16) used as controls was anaesthetised and ventilated, but they were not subjected to bleeding and fluid loading. These animals were also killed four hours after the start of the caspofungin infusion.
# EDTA-blood samples were drawn through a dedicated arterial catheter just before and 15, 30, 60 and 90 minutes and 2 hours, 3 hours and 4 hours after the caspofungin infusions were started in both groups. Then the animals were immediately killed, and lung tissue samples (2 cm × 2 cm × 2 cm) were surgically removed from nondependent parts of both the lower and upper lobes after sternotomy. Plasma was obtained by blood centrifugation at 1,500 g for 15 minutes. Plasma and lung samples were immediately stored at -80°C. The remaining lung tissues were used for the determination of extravascular lung water indexed to body weight (EVLWI) by using a gravimetric method as previously described. Caspofungin acetate was kindly provided by Merck Sharp & Dohme-Chibret. Plasma and lung caspofungin concentrations were determined by using a validated high-performance liquid chromatography method with fluorescence detection after a solid-phase extraction (Bond Elut™ column; Agilent Technologies, Santa Clara, CA, USA). Caspofungin and the internal standard (IS) propranolol were separated on a LiChrospher column (100 RP-8e (5 μm); Merck Chemicals KGaA, Darmstadt, Germany) using a mobile phase consisting of acetonitrile and 0.1% trifluoroacetic acid buffer (200:300 vol/vol) at a flow rate of 1 mL/minute. The retention times were 6 and 22 minutes for IS and caspofungin, respectively. The linearity range was 0.3 to 7.5 mg/L (r^2 > 0.998). The lower limit of quantification, defined as the lowest concentration that could be determined with a relative error and precision (relative standard deviation) less than 20%, was 0.3 μg/mL. […] The maximal concentration (Cmax) was measured at the end of the infusion.
# Lung samples were weighed (200 ± 150 mg), homogenised with a 1.5-mL saline solution, ground for 15 minutes and centrifuged twice at 10,000 rpm for 10 minutes. […] Lung caspofungin concentrations (Ct) were determined four hours after starting the caspofungin infusion and are expressed as micrograms per gram of lung tissue. The tissue-to-plasma ratio for each group was calculated as R = (Ct/Cp) × 100, where Cp is the caspofungin plasma concentration at four hours.
# [3] = Two-compartment population pharmacokinetic analysis (Monolix) of plasma caspofungin in pigs; type: in vivo; conditions: pig; for Q (intercompartmental clearance) / V1 (central volume of distribution) / V2 (peripheral volume of distribution) / clearance: two-compartment population estimate; for clearance: 70 mg one-hour iv infusion, read-out: CL (central elimination clearance) (converted)
# Method: (§2) The AUC from zero to four hours (AUC0→4 hours) was determined using the trapezoidal rule. The concentration vs time data for both groups were modelled using the population approach method implemented in Monolix version 3.1 release 2 software. A two-compartment mammillary model was developed and parameterised in terms of central volume of distribution of caspofungin (V1) and elimination clearance of caspofungin (CL), peripheral volume of distribution of caspofungin (V2) and intercompartmental clearance of caspofungin (Q). The total apparent volume of distribution of caspofungin (Vd) was calculated as V1 + V2. The interindividual variability (ω) for each parameter and the residual variability of the model (σ) were estimated.
# [4] = Caspofungin plasma pharmacokinetics in anaesthetised, ventilated pigs (shock vs control); type: in vivo; conditions: pig, 70 mg one-hour iv infusion; for level at 4 h / AUC(0-t): iv, 70 mg; for level at 4 h: four hours after start of infusion, read-out: Cp (caspofungin plasma concentration at four hours); for AUC(0-t): unit as printed in abstract, read-out: area under curve (AUC) from zero to four hours
# Method: as §1
# EDTA-blood samples were drawn through a dedicated arterial catheter just before and 15, 30, 60 and 90 minutes and 2 hours, 3 hours and 4 hours after the caspofungin infusions were started in both groups. Then the animals were immediately killed, and lung tissue samples (2 cm × 2 cm × 2 cm) were surgically removed from nondependent parts of both the lower and upper lobes after sternotomy. Plasma was obtained by blood centrifugation at 1,500 g for 15 minutes. Plasma and lung samples were immediately stored at -80°C. The remaining lung tissues were used for the determination of extravascular lung water indexed to body weight (EVLWI) by using a gravimetric method as previously described. Caspofungin acetate was kindly provided by Merck Sharp & Dohme-Chibret. Plasma and lung caspofungin concentrations were determined by using a validated high-performance liquid chromatography method with fluorescence detection after a solid-phase extraction (Bond Elut™ column; Agilent Technologies, Santa Clara, CA, USA). Caspofungin and the internal standard (IS) propranolol were separated on a LiChrospher column (100 RP-8e (5 μm); Merck Chemicals KGaA, Darmstadt, Germany) using a mobile phase consisting of acetonitrile and 0.1% trifluoroacetic acid buffer (200:300 vol/vol) at a flow rate of 1 mL/minute. The retention times were 6 and 22 minutes for IS and caspofungin, respectively. The linearity range was 0.3 to 7.5 mg/L (r^2 > 0.998). The lower limit of quantification, defined as the lowest concentration that could be determined with a relative error and precision (relative standard deviation) less than 20%, was 0.3 μg/mL. Intraday and interday levels of interassay precision were 1.91% and 4.84% (0.5 μg/mL), 6.94% and 10.4% (3 μg/mL) and 7.84% and 12% (5 μg/mL) for serum samples. The maximal concentration (Cmax) was measured at the end of the infusion.
# as §2
# [5] = healthy humans, single dose of 70 mg, cited from earlier work
# Method: In the early clinical development program for caspofungin, a target concentration of 1 μg/mL was used as a guide for concentrations likely to be efficacious. This target was determined on the basis of in vitro susceptibility test results and was selected as the concentration that exceeded the minimal inhibitory concentration at which 90% of Candida spp. isolates were inhibited.
compound,measurement,setting,value
"CC[C@H](C)C[C@H](C)CCCCCCCCC(=O)N[C@H]1C[C@@H](O)[C@@H](NCCN)NC(=O)[C@@H]2[C@@H](O)CCN2C(=O)[C@H]([C@H](O)CCN)NC(=O)[C@H]([C@H](O)[C@@H](O)c2ccc(O)cc2)NC(=O)[C@@H]2C[C@@H](O)CN2C(=O)[C@H]([C@@H](C)O)NC1=O [caspofungin, caspofungin acetate]",patients in whom the trough concentration at day 2 of treatment exceeded 1.0 μg/mL,[1],75%
same,Ct (lung caspofungin concentration at four hours),"[2]; control group (n = 16), 70 mg one-hour iv infusion, lung homogenate, four sampled lobes averaged, HPLC with fluorescence detection, median",1.64 µg/g
same,Ratio = (Ct/Cp) × 100 (lung tissue-to-plasma ratio),"[2]; control group (n = 16), four hours after start of infusion, median",7.28%
same,tissue level at time at 4 h,"[2]; shock group (n = 12), 70 mg one-hour iv infusion, lung homogenate, four sampled lobes averaged, HPLC with fluorescence detection, median, read-out: Ct (lung caspofungin concentration at four hours)",1220 ng/g
same,Ratio = (Ct/Cp) × 100 (lung tissue-to-plasma ratio),"[2]; shock group (n = 12), four hours after start of infusion, median",7.76%
same,median lung caspofungin concentration lower in the shock group than in the control group,"[2]; shock vs control group, four hours after start of infusion",25%
same,Q (intercompartmental clearance),[3]; control group (n = 16),4.23 L/h
same,V1 (central volume of distribution),[3]; control group (n = 16),0.98 L
same,V2 (peripheral volume of distribution),[3]; control group (n = 16),1.43 L
same,clearance,"[3]; plasma, iv, 70 mg, control group (n = 16)",4.83 mL/min
same,clearance,"[3]; plasma, iv, 70 mg, shock group (n = 12)",3.5 mL/min
same,Q (intercompartmental clearance),[3]; shock group (n = 12),8.16* L/hour
same,V1 (central volume of distribution),[3]; shock group (n = 12),0.96 L
same,V2 (peripheral volume of distribution),[3]; shock group (n = 12),2.8* L
same,Vd,"[3]; plasma, iv, 70 mg, shock group (n = 12), calculated as V1 + V2, read-out: Vd (total apparent volume of distribution)",3.9 L
same,Cmax (maximum caspofungin plasma concentration),"[4]; control group (n = 16), no haemorrhage, measured at end of infusion, HPLC with fluorescence detection, median",33100 ng/mL
same,level at 4 h,"[4]; plasma, control group (n = 16), median",20700 ng/mL
same,AUC(0-t),"[4]; plasma, control group, median",80800 ng·h/mL
same,level at 4 h,"[4]; plasma, shock group (n = 12), median",16100 ng/mL
same,AUC(0-t),"[4]; plasma, shock group, median",60300 ng·h/mL
same,median AUC0→4 hours lower in the shock group than in the control group,[4]; shock vs control group,25%
same,median maximal plasma concentration lower in the shock group than in the control group,[4]; shock vs control group,35%
same,Cmax,"[4]; plasma, shock group (n = 12), hypovolaemic shock then saline fluid loading, measured at end of infusion, HPLC with fluorescence detection, median, read-out: Cmax (maximum caspofungin plasma concentration)",21600 ng/mL
same,concentration at 24 hours (trough concentration),"[5]; mean (95% confidence interval, 1.18 to 1.71)",1420 ng/mL
same,mean plasma Cmax,"[5]; mean (95% confidence interval, 10.87 to 13.33)",12040 ng/mL
